# From US20160199351A1, “COMPOSITIONS AND METHODS FOR INHIBITING FUNGAL INFECTIONS” (priority 2015, published 2016)
# Read-outs that look alike come from different tables or passages of the source.
# Assays:
# Histoplasma capsulatum = format: cell-based; conditions: 24-hour treatment
# Fusarium oxysporum = test: MIC, CLSI M38-A2 broth dilution (Table 1); format: cell-based
# Fusarium solani = test: MIC, CLSI M38-A2 broth dilution (Table 1); format: cell-based; conditions: isolate FS1, 48 hours
# Lomentospora prolificans = test: MIC, CLSI M38-A2 broth dilution (Table 1); format: cell-based; conditions: isolate LP1, 48 hours
# [1] = test system: Coccidioides immitis/posadasii; format: cell-based
# Blastomyces dermatitidis = test: MIC, macrodilution method (Table 1); format: cell-based; conditions: 96 hours
# Fusarium sp. = test: MIC (Table 5); format: cell-based; conditions: for MIC / MIC50: Fusarium; for MIC: read-out: MIC 100%
# Coccidioides sp. = test: microbe, parasite or virus in culture; format: cell-based
# C. parapsilosis = test: MIC against Candida species (Table 4)
structure (smiles),measurement,setting,value
"NCC(=O)Nc1ccc(-n2nc(C(F)(F)F)cc2-c2ccc3c(ccc4ccccc43)c2)cc1 [AR-12, 2-amino-N-(4-(5-(phenanthren-2-yl)-3-(trifluoromethyl)-1H-pyrazol-1-yl)phenyl)acetamide]",reduction of fungal viability,Histoplasma capsulatum; then growth in absence of drug,about 1000 fold
same,viability staining of yeasts,Histoplasma capsulatum; ethidium bromide / fluorescein staining,loss of yeast viability
same,MIC 50%,"Fusarium oxysporum; isolate FO1, 48 hours",4 gg/m1
same,MIC 100%,"Fusarium oxysporum; isolate FO1, 48 hours",4 gg/m1
same,MIC 50%,"Fusarium oxysporum; isolate FO2, 48 hours",4 gg/m1
same,MIC 100%,"Fusarium oxysporum; isolate FO2, 48 hours",4 gg/m1
same,MIC 50%,Fusarium solani,4 gg/m1
same,MIC 100%,Fusarium solani,4 gg/m1
same,MIC 50%,Lomentospora prolificans,2 gg/m1
same,MIC 100%,Lomentospora prolificans,2 gg/m1
same,MIC 50%,"[1]; isolate Cocci1, 48 hours",1 gg/m1
same,MIC 100%,"[1]; isolate Cocci1, 48 hours",1 gg/m1
same,MIC 50%,"[1]; isolate Cocci2, 48 hours",1 gg/m1
same,MIC 100%,"[1]; isolate Cocci2, 48 hours",1 gg/m1
same,MIC 50%,"[1]; isolate Cocci3, 48 hours",2 gg/m1
same,MIC 100%,"[1]; isolate Cocci3, 48 hours",2 gg/m1
same,MIC 50%,"Blastomyces dermatitidis; isolate BD1, macrodilution",2 gg/m1
same,MIC 100%,"Blastomyces dermatitidis; isolate BD1, macrodilution",4 gg/m1
same,MIC 50%,"Blastomyces dermatitidis; isolate BD2, macrodilution",1 gg/m1
same,MIC 100%,"Blastomyces dermatitidis; isolate BD2, macrodilution",2 gg/m1
same,MIC 50%,"Blastomyces dermatitidis; isolate BD3, macrodilution",1 gg/m1
same,MIC 100%,"Blastomyces dermatitidis; isolate BD3, macrodilution",1 gg/m1
same,MIC,"Fusarium sp.; 24 h, isolate F-1, 24 hrs",2 µg/mL
same,MIC,"Fusarium sp.; 24 h, isolate F-2, 24 hrs",2 µg/mL
same,MIC,"Fusarium sp.; 24 h, isolate F-3, 24 hrs",2 µg/mL
same,MIC50,"Fusarium sp.; isolate F-1, 48/72 hrs",4 µg/mL
same,MIC,"Fusarium sp.; isolate F-1, 48/72 hrs",4 µg/mL
same,MIC,"Fusarium sp.; isolate F-2, 48/72 hrs",4 µg/mL
same,MIC,"Fusarium sp.; isolate F-3, 48/72 hrs",4 µg/mL
same,MIC50,"Fusarium sp.; isolate F-1, 24 hrs",2 µg/mL
same,MIC 50%,"Fusarium sp.; isolate F-2, 48/72 hrs",4 µg/mL
same,MIC 50%,"Fusarium sp.; isolate F-2, 24 hrs",2 µg/mL
same,MIC 50%,"Fusarium sp.; isolate F-3, 48/72 hrs",4 µg/mL
same,MIC 50%,"Fusarium sp.; isolate F-3, 24 hrs",2 µg/mL
same,MIC50,Coccidioides sp.; Coccidioides,2 µg/mL
same,MIC,"Coccidioides sp.; Coccidioides, read-out: MIC 100%, isolate COCCI-1, 72/192 hrs",4 µg/mL
same,MIC,"Coccidioides sp.; Coccidioides, read-out: MIC 100%, isolate COCCI-2, 72/192 hrs",8 µg/mL
same,MIC,"Coccidioides sp.; Coccidioides, read-out: MIC 100%, isolate COCCI-3, 72/192 hrs",4 µg/mL
same,MIC 50%,"Coccidioides sp.; isolate COCCI-1, 72/192 hrs",2 µg/mL
same,MIC 50%,"Coccidioides sp.; isolate COCCI-3, 72/192 hrs",2 µg/mL
same,MIC50,"C. parapsilosis; 24 h, isolate CP-1, 24 hrs",2 µg/mL
same,MIC50,"C. parapsilosis; 24 h, isolate CP-2, 24 hrs",2 µg/mL
same,MIC50,"C. parapsilosis; 24 h, isolate CP-3, 24 hrs",2 µg/mL
same,MIC50,"C. parapsilosis; 24 h, isolate CP-4, 24 hrs",2 µg/mL
same,MIC50,"C. parapsilosis; 24 h, isolate CP-5, 24 hrs",2 µg/mL
same,MIC50,"C. parapsilosis; 24 h, isolate CP-6, 24 hrs",2 µg/mL
same,MIC50,"C. parapsilosis; 24 h, isolate CP-7, 24 hrs",2 µg/mL
same,MIC50,"C. parapsilosis; 24 h, isolate QC",2 µg/mL
same,MIC,"C. parapsilosis; 24 h, read-out: MIC 100%, isolate CP-1, 24 hrs",2 µg/mL
same,MIC,"C. parapsilosis; 24 h, read-out: MIC 100%, isolate CP-2, 24 hrs",4 µg/mL
same,MIC,"C. parapsilosis; 24 h, read-out: MIC 100%, isolate CP-3, 24 hrs",4 µg/mL
same,MIC,"C. parapsilosis; 24 h, read-out: MIC 100%, isolate CP-4, 24 hrs",4 µg/mL
same,MIC,"C. parapsilosis; 24 h, read-out: MIC 100%, isolate CP-5, 24 hrs",2 µg/mL
same,MIC,"C. parapsilosis; 24 h, read-out: MIC 100%, isolate CP-6, 24 hrs",4 µg/mL
same,MIC,"C. parapsilosis; 24 h, read-out: MIC 100%, isolate CP-7, 24 hrs",2 µg/mL
same,MIC,"C. parapsilosis; 24 h, read-out: MIC 100%, isolate QC, 24 hrs",2 µg/mL
same,MIC50,"C. parapsilosis; 48 h, isolate CP-1, 48 hrs",4 µg/mL
same,MIC50,"C. parapsilosis; 48 h, isolate CP-2, 48 hrs",4 µg/mL
same,MIC50,"C. parapsilosis; 48 h, isolate CP-3, 48 hrs",4 µg/mL
same,MIC50,"C. parapsilosis; 48 h, isolate CP-4, 48 hrs",4 µg/mL
same,MIC50,"C. parapsilosis; 48 h, isolate CP-5, 48 hrs",4 µg/mL
same,MIC50,"C. parapsilosis; 48 h, isolate CP-6, 48 hrs",4 µg/mL
same,MIC50,"C. parapsilosis; 48 h, isolate CP-7, 48 hrs",2 µg/mL
same,MIC50,"C. parapsilosis; 48 h, isolate QC",2 µg/mL
